The target in experiment [1] is Proto-oncogene tyrosine-protein kinase Src (Gallus gallus) (UniProt P00523). As to the kind of experiment: Inhibition of the phosphorylation of a random glutamate-tyrosine (4:1) copolymer by isolated avian c-Src protein.
Experiment [2] concerns the target T1, Fibroblast growth factor receptor 1 (Homo sapiens, UniProt P11362). The experiment can be described thus: Inhibition of bFGF-mediated tyrosine phosphorylation. The format is functional.
Experiment [3] has as its target Platelet-derived growth factor receptor beta (Mus musculus, UniProt P05622).
Description: Inhibition of the phosphorylation of a random glutamate-tyrosine (4:1) copolymer by isolated mouse Platelet-derived growth factor protein.
The target of experiment [4] is T1, Fibroblast growth factor receptor 1.
Description: Inhibition of the phosphorylation of a random glutamate-tyrosine (4:1) copolymer by isolated Fibroblast growth factor receptor 1.
For experiment [5], the system named is HUVEC. The experiment can be described thus: Inhibition of in vitro cell Human umbilical vein endothelial (HUVEC) cell proliferation.
Another experiment has as its system Ovarian cancer cell line. As to the kind of experiment: Inhibition of human ovarian carcinoma (A90) FGF-R overexpressing cell proliferation.
Experiment [6] concerns HUVEC. As to the kind of experiment: Inhibition of Matrigel invasion assay in HUVEC cells. It is filed as functional, cell-based. The following applies: Homo sapiens.
Another experiment deals with C6. The experiment can be described thus: Inhibition of PDGF-dependent rat glioma C6 cell proliferation.
The subject of experiment [7] is HUVEC. The experiment can be described thus: (§1) Inhibition of microcapillary growth in HUVEC cells. It is filed as functional, cell-based. The following applies: Homo sapiens.
The subject of experiment [8] is HUVEC. The description is as §1. As to conditions: Homo sapiens.
Experiment [9] has as its system Mus musculus. As to the kind of experiment: Ratio of treated to control tumor mass on last therapy day in lewis lung murine tumor at 200 mg/kg dose. It is filed as functional.
The test system of experiment [10] is Lewis lung carcinoma cell line. The experiment can be described thus: Weight change in lewis lung murine tumor at 200 mg/kg peroral dose for days 4-12. The format is functional, Mus musculus. As to conditions: route oral.
Experiment [11] concerns Mus musculus. The experiment can be described thus: Weight change in mammary 16/c murine tumor at 200 mg/kg peroral dose for days 1-9. Also noted: dose 200 mg/kg. The format is functional, organism-based.
For experiment [12], the system named is Mus musculus. The experiment can be described thus: Difference in days for treated (T) and control (C) tumors to reach 750 mg in mammary 16/c murine tumor at 200 mg/kg. The format is functional.
The test system of experiment [13] is Mus musculus. As to the kind of experiment: Ratio of treated to control tumor mass on last therapy day in mammary 16/c murine tumor at 200 mg/kg dose. It is filed as functional.
Experiment [14] relates to M5076. The experiment can be described thus: Difference in days for treated (T) and control (C) tumors to reach 750 mg in murine M5076 sarcoma tumor at 200 mg/kg. The format is functional, Mus musculus.
For experiment [15], the system named is M5076. The experiment can be described thus: Ratio of treated to control tumor mass on last therapy day in M5076 sarcoma murine tumor at 200 mg/kg. It is filed as functional, Mus musculus.
Experiment [16] relates to Mus musculus. As to the kind of experiment: Difference in days for the treated (T) and control (C) tumors to reach 750 mg in lewis lung murine tumor at 200 mg/kg. The format is functional.
In experiment [17] the test system is Mus musculus. The experiment can be described thus: Difference in days for treated (T) and control (C) tumors to reach 750 mg in mammary 16/c murine tumor at 80 mg/kg. The format is functional.
In experiment [18] the test system is Mus musculus. The experiment can be described thus: Weight change in mammary 16/c murine tumor at 80 mg/kg peroral dose for schedule q12hx2, days 1-9. It is filed as functional. As to conditions: route oral.
Experiment [19] relates to M5076. As to the kind of experiment: Weight change in murine M5076 sarcoma tumor at 200 mg/kg peroral dose days 8-16. The format is functional, organism-based. Also noted: dose 200 mg/kg. The following applies: Mus musculus.

Each structure is given as a SMILES string.

Sequence of Platelet-derived growth factor receptor beta (P05622 whole entry): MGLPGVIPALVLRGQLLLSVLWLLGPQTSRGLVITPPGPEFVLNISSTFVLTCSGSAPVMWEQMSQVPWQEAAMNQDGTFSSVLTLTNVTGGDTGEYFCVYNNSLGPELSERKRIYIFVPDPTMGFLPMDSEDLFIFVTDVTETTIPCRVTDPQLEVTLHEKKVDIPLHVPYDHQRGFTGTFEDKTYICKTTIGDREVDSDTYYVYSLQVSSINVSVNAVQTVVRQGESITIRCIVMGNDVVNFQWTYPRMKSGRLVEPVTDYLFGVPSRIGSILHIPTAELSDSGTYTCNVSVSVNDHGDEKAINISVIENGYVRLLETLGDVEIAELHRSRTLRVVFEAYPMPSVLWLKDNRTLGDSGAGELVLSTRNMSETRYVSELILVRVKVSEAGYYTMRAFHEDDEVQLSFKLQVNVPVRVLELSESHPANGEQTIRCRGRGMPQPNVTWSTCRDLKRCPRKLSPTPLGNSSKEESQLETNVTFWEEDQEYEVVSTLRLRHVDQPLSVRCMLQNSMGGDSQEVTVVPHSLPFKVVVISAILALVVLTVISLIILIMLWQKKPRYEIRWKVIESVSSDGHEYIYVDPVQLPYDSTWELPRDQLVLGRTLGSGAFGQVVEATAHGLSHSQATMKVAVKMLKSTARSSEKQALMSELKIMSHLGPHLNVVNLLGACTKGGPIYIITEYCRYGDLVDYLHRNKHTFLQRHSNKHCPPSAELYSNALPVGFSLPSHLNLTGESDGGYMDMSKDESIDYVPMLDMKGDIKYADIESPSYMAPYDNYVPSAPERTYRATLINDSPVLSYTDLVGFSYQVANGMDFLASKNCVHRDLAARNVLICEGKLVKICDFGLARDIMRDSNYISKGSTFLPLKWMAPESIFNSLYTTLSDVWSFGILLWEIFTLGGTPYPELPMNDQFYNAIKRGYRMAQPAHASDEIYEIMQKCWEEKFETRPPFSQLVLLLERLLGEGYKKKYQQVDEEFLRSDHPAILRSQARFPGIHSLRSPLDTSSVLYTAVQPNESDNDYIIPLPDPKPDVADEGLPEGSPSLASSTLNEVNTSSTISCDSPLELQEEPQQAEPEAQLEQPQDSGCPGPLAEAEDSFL
T1 sequence (P11362 whole entry): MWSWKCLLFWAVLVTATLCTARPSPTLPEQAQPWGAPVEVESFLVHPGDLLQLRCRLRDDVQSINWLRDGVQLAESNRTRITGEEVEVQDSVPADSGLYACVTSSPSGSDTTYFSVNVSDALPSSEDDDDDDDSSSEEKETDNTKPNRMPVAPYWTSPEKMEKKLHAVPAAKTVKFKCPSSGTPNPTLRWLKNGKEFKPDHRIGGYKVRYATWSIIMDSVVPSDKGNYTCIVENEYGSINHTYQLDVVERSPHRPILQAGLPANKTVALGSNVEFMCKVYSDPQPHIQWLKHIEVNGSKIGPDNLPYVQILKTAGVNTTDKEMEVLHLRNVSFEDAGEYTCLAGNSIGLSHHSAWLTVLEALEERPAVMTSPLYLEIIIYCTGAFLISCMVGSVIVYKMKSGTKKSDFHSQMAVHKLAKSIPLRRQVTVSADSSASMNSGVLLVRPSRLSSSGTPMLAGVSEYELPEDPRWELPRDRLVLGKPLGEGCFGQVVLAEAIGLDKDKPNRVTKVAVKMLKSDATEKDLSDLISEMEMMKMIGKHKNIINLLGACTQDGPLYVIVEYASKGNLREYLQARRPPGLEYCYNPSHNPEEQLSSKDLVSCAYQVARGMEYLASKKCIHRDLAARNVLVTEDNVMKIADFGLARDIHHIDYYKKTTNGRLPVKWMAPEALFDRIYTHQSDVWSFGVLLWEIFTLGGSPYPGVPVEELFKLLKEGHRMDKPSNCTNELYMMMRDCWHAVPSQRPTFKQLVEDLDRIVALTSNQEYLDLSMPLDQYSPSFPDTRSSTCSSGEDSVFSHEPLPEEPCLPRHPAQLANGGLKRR

On to `Nc1ncc2cc(-c3c(Cl)cccc3Cl)c(N)nc2n1`, for which half-maximal inhibition in experiment [1] (IC50) was put at 210 nM.

Consider `Cc1c[nH]c(/C=C2\C(=O)Nc3ccccc32)c1CCC(=O)O`, for which the IC50 (commonly the concentration that gives 50% inhibition) in experiment [2] was found to be 20000 nM.

For `COc1cc(OC)cc(-c2cc3cnc(N)cc3nc2NC(=O)Nc2ccccc2)c1`, the results for the half-inhibitory concentration (IC50) in experiment [3] and in experiment [4] were above 50000 nM and 510 nM, respectively.

`Nc1cc2nc(N)c(-c3c(Cl)cccc3Cl)cc2cn1`: the IC50 in experiment [3] is 35000 nM; in experiment [4], 2800 nM.

For the molecule `CC(C)(C)NC(=O)Nc1nc2cc(N)ncc2cc1-c1ccccc1`, the IC50 in experiment [3] came to 2600 nM; in experiment [4] it was 1900 nM.

Turning to `COc1cc(OC)cc(-c2cc3cnc(N)cc3nc2NC(=O)NC(C)(C)C)c1`, the IC50 in the experiment on HUVEC [5] was 5.5 nM; in the experiment with Ovarian cancer cell line, 1200 nM; in experiment [3], 38000 nM; in the experiment on HUVEC [6] it was above 10000 nM; in experiment [4] it was 42 nM; in the experiment on C6, 8500 nM. In the experiment on HUVEC [7], this molecule displayed a half-inhibitory concentration (IC50) of 100 nM.

On to `COc1cc(OC)cc(-c2cc3cnc(NCCCN4CCOCC4)cc3nc2NC(=O)NC(C)(C)C)c1`, for which the IC50 is 85 nM in the experiment with HUVEC [5]; 1 nM in the experiment with HUVEC [8]; 920 nM in the experiment on Ovarian cancer cell line; 45000 nM in experiment [3]; 3100 nM in the experiment with C6.

Regarding `COc1cc(OC)cc(-c2cc3cnc(NC(C)=O)cc3nc2NC(=O)NC(C)(C)C)c1`, the IC50 in the experiment on HUVEC [5] is 4 nM; in the experiment with Ovarian cancer cell line, 12000 nM; in [3] it was 4700 nM; with HUVEC [6], 7 nM; in experiment [4], 25 nM; in the experiment on C6 it was 650 nM. This molecule also gave an IC50 in the experiment with HUVEC [7] of 0.01 nM. The T/C – broadly, the result in the treated group divided by that in the control group, in per cent – in the experiment on Mus musculus [9] was found to be 109%; with Mus musculus [13], 0%; with M5076 [15], 78%. Further, the Weight change in experiment [10] was -0.4 g; in the experiment on Mus musculus [11] it was “Weight gain”; in the experiment with Mus musculus [18], -0.7 g; with M5076 [19], “Weight gain”. The T-C with Mus musculus [12] was 11.3 days; in the experiment with M5076 [14], 1 days; in the experiment with Mus musculus [16] it was 0 days; with Mus musculus [17], 10.8 days.

In [2], `COC(=O)C1=C(c2ccccc2)c2ccccc2C1=O` showed an IC50 of 5100 nM.

Regarding `COc1cc(OC)cc(-c2cc3cnc(NC(=O)C(F)(F)F)cc3nc2N)c1`, the IC50 in the experiment with HUVEC [5] is 4900 nM; in the experiment on Ovarian cancer cell line it was 17000 nM; in experiment [3], above 50000 nM; in experiment [4], 61 nM; with C6 it was 9000 nM.

Take `COc1cc(OC)cc(-c2cc3cnc(N)cc3nc2N)c1`: the IC50 was 820 nM in the experiment on HUVEC [5]; 17000 nM in the experiment with Ovarian cancer cell line; above 50000 nM in experiment [3]; 200 nM in experiment [4]; 8900 nM with C6.

Turning to `CCNC(=O)Nc1nc2cc(N)ncc2cc1-c1ccccc1`, the IC50 stood at 7700 nM in experiment [3] and 1300 nM in experiment [4].

For `CC(C)(C)NC(=O)Nc1nc2nc(N)ncc2cc1-c1c(Cl)cccc1Cl`, the IC50 amounted to 1100 nM in experiment [3] and 130 nM in [4].

For `CCNC(=O)Nc1nc2cc(N)ncc2cc1-c1c(Cl)cccc1Cl`, the IC50 in [3] is 11000 nM; in experiment [4] it was 150 nM.

In the case of `COc1cc(OC)cc(-c2cc3cnc(NC(=O)NC(C)(C)C)cc3nc2NC(=O)NC(C)(C)C)c1`, the IC50 with HUVEC [5] is 17 nM; in the experiment with Ovarian cancer cell line it was 11000 nM; in experiment [3], above 50000 nM; in experiment [4], 160 nM; with C6, 13000 nM; in the experiment with HUVEC [7], 10 nM.

For `COc1cc(OC)cc(-c2cc3cnc(N)nc3nc2N)c1`, the IC50 in [3] is above 50000 nM; in experiment [4], 230 nM.

With `Nc1cc2nc(N)c(-c3ccccc3)cc2cn1`, the IC50 in experiment [3] and in [4] was 17000 nM each time.

For `CC(C)(C)NC(=O)Nc1nc2cc(N)ncc2cc1-c1c(Cl)cccc1Cl`, the values for the IC50 in [3] and in experiment [4] were 1800 nM and 120 nM, respectively.

For `CNC(=O)Nc1nc2cc(N)ncc2cc1-c1cc(OC)cc(OC)c1`, the IC50 in [3] is above 50000 nM; in experiment [4] it was 95 nM.

Turning to `COc1cc(OC)cc(-c2cc3cnc(N)nc3nc2NC(=O)NC(C)(C)C)c1`, the IC50 was 580 nM with HUVEC [5]; 15000 nM with Ovarian cancer cell line; 1100 nM with HUVEC [6]; 600 nM in [4]; above 25000 nM in the experiment on C6; 100 nM in the experiment with HUVEC [7].

In turn, `CCNC(=O)Nc1nc2nc(N)ncc2cc1-c1c(Cl)cccc1Cl` returned an IC50 in [4] of 130 nM.

Turning to `CCNC(=O)Nc1nc2cc(N)ncc2cc1-c1cc(OC)cc(OC)c1`, the IC50 in the experiment on HUVEC [5] was 170 nM; in the experiment with Ovarian cancer cell line, 9300 nM; in experiment [3] it was above 50000 nM; in experiment [4], 29 nM; in the experiment with C6, 8000 nM.

Consider `Cn1c(SSc2c(C(=O)Nc3ccccc3)c3ccccc3n2C)c(C(=O)Nc2ccccc2)c2ccccc21`, for which, in experiment [2], the IC50 came out at 4500 nM.

For the origin of these results see ChEMBL document CHEMBL1133506, “3-(3,5-Dimethoxyphenyl)-1,6-naphthyridine-2,7-diamines and related 2-urea derivatives are potent and selective inhibitors of the FGF receptor-1 tyrosine kinase” (J Med Chem, 2000).
